Experiments:
HDAC4 = target: T1, HDAC4 (Homo sapiens, UniProt P56524); experiment: In vitro HDAC enzyme inhibition assay, HDAC4; type: biochemical; conditions: for HDAC4/HDAC6 in vitro selectivity: ratio of IC50 for HDAC4 relative to that of HDAC6; for IC50: recombinant full-length HDAC4, substrate MAZ1675 10 μM; for selectivity toward HDAC6 compared to HDAC4 (in words): tested in vitro
T1 construct: Recombinant, full-length HDAC protein (BPS Biosciences) was incubated with fluorophore conjugated substrate; purchased BPS Biosciences
Procedure, shortened: (§1)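 Full-length recombinant enzyme + MAZ1600/MAZ1675 substrate at [S]=Km, HEPES/KCl/Tween-20/BSA/TCEP buffer pH 7.4; AMC fluorescence via deacetylase + trypsin, kinetic read q5 min; slope in linear range normalized to controls.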

acetylated histones = experiment: High-content image analysis of induction of acetylated histones in A549 cells; conditions: Homo sapiens, A549, 8 h, read-out: EC50 for half-maximal induction of acetylated histones (AcHistone)
HDAC5 = target: T2, HDAC5 (Homo sapiens, UniProt Q9UQL6); experiment: In vitro HDAC enzyme inhibition assay, HDAC5; type: biochemical; conditions: for HDAC5/HDAC6 in vitro selectivity: ratio of IC50 for HDAC5 relative to that of HDAC6; for IC50: recombinant full-length HDAC5, substrate MAZ1675 40 μM; for selectivity toward HDAC6 compared to HDAC5 (in words): tested in vitro
T2 construct: Recombinant, full-length HDAC protein (BPS Biosciences) was incubated with fluorophore conjugated substrate; purchased BPS Biosciences
Procedure, shortened: as §1

HDAC8 = target: T3, HDAC8 (Homo sapiens, UniProt Q9BY41); experiment: In vitro HDAC enzyme inhibition assay, HDAC8; type: biochemical; conditions: for HDAC8/HDAC6 in vitro selectivity: ratio of IC50 for HDAC8 relative to that of HDAC6; for IC50: recombinant full-length HDAC8, substrate MAZ1675 282 μM
T3 construct: Recombinant, full-length HDAC protein (BPS Biosciences) was incubated with fluorophore conjugated substrate; purchased BPS Biosciences
T3 sequence (Q9BY41 1-377): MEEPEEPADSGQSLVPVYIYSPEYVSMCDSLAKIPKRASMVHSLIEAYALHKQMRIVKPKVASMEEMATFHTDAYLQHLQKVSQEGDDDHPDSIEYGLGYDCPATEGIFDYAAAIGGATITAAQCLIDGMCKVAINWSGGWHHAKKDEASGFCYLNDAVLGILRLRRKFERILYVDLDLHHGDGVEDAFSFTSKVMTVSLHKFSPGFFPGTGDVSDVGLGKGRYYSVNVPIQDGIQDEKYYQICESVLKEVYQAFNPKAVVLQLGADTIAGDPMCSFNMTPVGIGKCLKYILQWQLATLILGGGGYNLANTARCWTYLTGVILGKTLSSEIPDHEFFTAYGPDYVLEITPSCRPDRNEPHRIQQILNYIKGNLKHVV
Procedure, shortened: as §1

HDAC6 = target: T4, HDAC6 (Homo sapiens, UniProt Q9UBN7); experiment: In vitro HDAC enzyme inhibition assay, HDAC6; type: biochemical; conditions: recombinant full-length HDAC6, substrate MAZ1600 9 μM
T4 construct: Recombinant, full-length HDAC protein (BPS Biosciences) was incubated with fluorophore conjugated substrate; purchased BPS Biosciences
T4 sequence (Q9UBN7 1-1215): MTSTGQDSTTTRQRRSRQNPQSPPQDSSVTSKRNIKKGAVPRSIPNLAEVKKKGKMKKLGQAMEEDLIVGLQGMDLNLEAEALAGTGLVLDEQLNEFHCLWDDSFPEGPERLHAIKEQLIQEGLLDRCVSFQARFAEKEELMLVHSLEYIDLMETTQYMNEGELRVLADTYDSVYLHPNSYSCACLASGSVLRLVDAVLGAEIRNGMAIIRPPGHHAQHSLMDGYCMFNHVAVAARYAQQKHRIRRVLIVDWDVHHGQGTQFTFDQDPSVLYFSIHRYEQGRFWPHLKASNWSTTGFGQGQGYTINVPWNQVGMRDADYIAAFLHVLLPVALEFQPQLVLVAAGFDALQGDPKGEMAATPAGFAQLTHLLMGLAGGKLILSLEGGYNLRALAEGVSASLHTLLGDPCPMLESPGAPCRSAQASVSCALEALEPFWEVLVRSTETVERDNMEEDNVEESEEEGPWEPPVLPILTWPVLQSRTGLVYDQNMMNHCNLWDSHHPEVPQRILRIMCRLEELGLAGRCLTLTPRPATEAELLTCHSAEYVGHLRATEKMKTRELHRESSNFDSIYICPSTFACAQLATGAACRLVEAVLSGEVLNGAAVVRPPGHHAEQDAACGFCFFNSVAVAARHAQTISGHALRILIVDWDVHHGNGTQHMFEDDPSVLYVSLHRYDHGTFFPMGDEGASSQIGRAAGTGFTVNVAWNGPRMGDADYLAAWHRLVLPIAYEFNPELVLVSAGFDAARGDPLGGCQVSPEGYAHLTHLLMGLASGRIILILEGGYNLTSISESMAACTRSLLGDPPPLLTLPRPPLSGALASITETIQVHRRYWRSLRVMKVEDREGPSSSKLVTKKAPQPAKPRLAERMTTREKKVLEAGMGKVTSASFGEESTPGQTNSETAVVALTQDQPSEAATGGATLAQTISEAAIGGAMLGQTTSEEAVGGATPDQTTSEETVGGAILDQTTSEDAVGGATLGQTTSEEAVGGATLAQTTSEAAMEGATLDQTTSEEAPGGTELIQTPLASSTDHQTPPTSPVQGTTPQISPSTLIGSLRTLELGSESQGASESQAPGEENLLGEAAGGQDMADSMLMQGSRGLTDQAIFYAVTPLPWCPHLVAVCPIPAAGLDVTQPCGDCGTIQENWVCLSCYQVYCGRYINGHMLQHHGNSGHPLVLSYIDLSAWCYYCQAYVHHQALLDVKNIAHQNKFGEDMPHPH
Procedure, shortened: as §1

HDAC2 = target: T5, HDAC2 (Homo sapiens, UniProt Q92769); experiment: In vitro HDAC enzyme inhibition assay, HDAC2; type: biochemical; conditions: for HDAC2/HDAC6 in vitro selectivity: ratio of IC50 for HDAC2 relative to that of HDAC6; for IC50: recombinant full-length HDAC2, substrate MAZ1600 22 μM
T5 construct: Recombinant, full-length HDAC protein (BPS Biosciences) was incubated with fluorophore conjugated substrate; purchased BPS Biosciences
Procedure, shortened: as §1

HDAC9 = target: T6, HDAC9 (Homo sapiens, UniProt Q9UKV0); experiment: In vitro HDAC enzyme inhibition assay, HDAC9; type: biochemical; conditions: for HDAC9/HDAC6 in vitro selectivity: ratio of IC50 for HDAC9 relative to that of HDAC6; for IC50: recombinant full-length HDAC9, substrate MAZ1675 26 μM; for selectivity toward HDAC6 compared to HDAC9 (in words): tested in vitro
T6 construct: Recombinant, full-length HDAC protein (BPS Biosciences) was incubated with fluorophore conjugated substrate; purchased BPS Biosciences
Procedure, shortened: as §1

HDAC3 = target: T7, HDAC3 (Homo sapiens, UniProt O15379); experiment: In vitro HDAC enzyme inhibition assay, HDAC3; type: biochemical; conditions: for HDAC3/HDAC6 in vitro selectivity: ratio of IC50 for HDAC3 relative to that of HDAC6; for IC50: recombinant full-length HDAC3, substrate MAZ1600 9 μM
T7 construct: Recombinant, full-length HDAC protein (BPS Biosciences) was incubated with fluorophore conjugated substrate; purchased BPS Biosciences
Procedure, shortened: as §1

T7 sequence (O15379 whole entry): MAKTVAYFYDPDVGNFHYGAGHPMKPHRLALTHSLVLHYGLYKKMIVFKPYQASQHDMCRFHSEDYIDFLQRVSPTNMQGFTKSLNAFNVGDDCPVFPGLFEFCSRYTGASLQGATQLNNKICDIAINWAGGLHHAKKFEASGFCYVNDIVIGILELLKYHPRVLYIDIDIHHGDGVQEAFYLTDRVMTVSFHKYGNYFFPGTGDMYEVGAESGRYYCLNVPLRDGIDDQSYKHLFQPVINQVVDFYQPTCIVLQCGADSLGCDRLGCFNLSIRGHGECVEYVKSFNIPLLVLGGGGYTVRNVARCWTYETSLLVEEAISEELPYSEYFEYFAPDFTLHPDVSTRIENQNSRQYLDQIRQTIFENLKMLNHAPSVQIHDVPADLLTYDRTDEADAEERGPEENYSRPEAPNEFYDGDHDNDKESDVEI
T7 sequence (Q9Y618 395-489 partner limits assumed): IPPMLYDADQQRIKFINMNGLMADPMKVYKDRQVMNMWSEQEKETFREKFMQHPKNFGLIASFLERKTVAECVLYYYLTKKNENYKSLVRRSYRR
T1 sequence (P56524 whole entry): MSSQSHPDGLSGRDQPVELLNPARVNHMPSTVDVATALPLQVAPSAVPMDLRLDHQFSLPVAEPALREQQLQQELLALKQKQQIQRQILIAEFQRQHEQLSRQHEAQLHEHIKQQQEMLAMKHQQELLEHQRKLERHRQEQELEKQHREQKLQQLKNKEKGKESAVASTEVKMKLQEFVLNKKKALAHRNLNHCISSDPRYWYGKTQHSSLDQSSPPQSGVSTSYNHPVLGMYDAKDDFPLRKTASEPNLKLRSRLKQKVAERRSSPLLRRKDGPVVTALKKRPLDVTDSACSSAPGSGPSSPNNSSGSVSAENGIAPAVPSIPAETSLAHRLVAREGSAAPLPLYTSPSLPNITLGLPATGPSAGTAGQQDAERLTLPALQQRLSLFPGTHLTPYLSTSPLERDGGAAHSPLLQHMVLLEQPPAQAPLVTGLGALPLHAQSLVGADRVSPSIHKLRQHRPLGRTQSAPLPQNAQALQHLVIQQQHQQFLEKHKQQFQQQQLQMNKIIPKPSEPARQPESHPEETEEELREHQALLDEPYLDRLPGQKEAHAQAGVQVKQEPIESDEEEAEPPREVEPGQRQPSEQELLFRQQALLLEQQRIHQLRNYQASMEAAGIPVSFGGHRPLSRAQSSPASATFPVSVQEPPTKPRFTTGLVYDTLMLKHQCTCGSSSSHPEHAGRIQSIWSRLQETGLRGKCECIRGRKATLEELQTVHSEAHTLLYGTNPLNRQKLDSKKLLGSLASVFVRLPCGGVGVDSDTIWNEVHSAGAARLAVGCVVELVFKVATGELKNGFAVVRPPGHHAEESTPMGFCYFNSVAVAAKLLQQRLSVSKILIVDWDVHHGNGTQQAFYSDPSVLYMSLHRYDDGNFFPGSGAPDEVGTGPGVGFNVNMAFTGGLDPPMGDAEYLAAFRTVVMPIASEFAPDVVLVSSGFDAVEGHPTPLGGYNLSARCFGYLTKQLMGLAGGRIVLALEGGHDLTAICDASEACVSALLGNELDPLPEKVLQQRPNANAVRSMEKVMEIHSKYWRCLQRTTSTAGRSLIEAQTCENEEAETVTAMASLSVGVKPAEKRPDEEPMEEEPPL
T5 sequence (Q92769 whole entry): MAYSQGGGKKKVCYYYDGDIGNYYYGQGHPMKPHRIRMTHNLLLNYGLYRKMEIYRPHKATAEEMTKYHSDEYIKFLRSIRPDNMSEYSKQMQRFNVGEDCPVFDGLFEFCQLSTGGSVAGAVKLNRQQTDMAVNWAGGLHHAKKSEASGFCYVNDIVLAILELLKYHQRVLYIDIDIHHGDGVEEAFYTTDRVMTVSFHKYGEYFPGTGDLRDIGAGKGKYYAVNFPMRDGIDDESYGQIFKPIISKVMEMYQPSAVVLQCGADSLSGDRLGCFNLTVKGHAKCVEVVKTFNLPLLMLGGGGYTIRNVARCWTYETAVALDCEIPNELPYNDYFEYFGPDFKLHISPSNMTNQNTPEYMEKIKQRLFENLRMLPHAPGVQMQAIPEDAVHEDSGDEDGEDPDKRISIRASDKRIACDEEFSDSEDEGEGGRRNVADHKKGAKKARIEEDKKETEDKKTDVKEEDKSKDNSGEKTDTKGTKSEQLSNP
T2 sequence (Q9UQL6 whole entry): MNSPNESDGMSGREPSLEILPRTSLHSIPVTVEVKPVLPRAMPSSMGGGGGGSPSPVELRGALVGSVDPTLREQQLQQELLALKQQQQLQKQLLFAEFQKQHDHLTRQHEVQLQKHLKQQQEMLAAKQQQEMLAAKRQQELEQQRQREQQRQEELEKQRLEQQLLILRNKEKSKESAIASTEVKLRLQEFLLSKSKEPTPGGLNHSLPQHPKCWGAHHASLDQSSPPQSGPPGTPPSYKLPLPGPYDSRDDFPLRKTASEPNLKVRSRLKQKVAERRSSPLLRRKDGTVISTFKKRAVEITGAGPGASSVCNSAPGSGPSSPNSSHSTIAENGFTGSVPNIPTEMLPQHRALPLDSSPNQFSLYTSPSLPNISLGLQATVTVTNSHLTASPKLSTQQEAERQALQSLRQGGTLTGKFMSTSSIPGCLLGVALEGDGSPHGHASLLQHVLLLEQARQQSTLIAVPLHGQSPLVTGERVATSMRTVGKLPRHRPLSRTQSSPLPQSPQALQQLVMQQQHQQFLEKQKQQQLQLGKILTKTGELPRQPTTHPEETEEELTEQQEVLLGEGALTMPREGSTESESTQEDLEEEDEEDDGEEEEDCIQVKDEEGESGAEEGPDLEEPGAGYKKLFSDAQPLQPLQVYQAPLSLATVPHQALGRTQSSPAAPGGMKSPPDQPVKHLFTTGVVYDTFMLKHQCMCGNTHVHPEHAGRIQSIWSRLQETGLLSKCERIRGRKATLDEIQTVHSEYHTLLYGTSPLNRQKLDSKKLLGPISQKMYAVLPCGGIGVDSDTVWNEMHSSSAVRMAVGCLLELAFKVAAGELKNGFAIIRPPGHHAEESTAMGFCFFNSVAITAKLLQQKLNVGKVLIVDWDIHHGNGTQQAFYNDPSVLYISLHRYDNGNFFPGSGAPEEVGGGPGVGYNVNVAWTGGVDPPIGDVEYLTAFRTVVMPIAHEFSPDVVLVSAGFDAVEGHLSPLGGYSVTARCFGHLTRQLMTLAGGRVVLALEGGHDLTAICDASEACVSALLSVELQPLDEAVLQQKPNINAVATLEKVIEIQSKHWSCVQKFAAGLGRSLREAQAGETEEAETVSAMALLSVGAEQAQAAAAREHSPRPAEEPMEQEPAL
T6 sequence (Q9UKV0 whole entry): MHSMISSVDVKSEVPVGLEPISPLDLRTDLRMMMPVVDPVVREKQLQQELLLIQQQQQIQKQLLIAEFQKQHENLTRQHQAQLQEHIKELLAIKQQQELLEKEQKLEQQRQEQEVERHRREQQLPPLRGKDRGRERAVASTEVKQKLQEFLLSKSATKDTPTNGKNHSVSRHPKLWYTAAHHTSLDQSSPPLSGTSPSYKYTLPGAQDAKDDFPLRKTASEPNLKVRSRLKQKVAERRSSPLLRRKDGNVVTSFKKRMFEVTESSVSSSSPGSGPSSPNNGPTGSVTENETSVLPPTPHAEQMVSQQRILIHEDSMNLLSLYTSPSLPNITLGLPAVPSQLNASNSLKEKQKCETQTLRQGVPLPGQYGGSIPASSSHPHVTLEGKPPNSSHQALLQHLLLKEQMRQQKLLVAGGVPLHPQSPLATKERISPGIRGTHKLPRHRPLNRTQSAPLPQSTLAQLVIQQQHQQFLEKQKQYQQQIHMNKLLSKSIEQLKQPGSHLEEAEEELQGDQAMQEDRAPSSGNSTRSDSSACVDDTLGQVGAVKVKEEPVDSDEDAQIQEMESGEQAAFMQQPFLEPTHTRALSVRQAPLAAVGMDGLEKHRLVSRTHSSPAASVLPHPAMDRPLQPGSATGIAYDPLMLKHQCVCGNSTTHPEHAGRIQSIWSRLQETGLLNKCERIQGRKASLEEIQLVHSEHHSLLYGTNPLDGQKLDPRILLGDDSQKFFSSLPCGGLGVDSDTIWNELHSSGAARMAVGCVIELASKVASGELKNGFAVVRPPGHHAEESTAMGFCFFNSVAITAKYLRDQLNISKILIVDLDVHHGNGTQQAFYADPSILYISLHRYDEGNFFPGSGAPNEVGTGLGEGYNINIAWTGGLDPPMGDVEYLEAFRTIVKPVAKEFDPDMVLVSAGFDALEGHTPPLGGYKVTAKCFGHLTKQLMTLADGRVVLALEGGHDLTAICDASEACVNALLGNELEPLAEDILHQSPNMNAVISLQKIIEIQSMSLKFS

Row | Compound | HDAC4/HDAC6 in vitro selectivity (HDAC4) | IC50 (HDAC4) | selectivity toward HDAC6 compared to HDAC4 (in words) (HDAC4) | EC50 (acetylated histones) | HDAC5/HDAC6 in vitro selectivity (HDAC5) | IC50 (HDAC5) | selectivity toward HDAC6 compared to HDAC5 (in words) (HDAC5) | HDAC8/HDAC6 in vitro selectivity (HDAC8) | IC50 (HDAC8) | IC50 (HDAC6) | HDAC2/HDAC6 in vitro selectivity (HDAC2) | IC50 (HDAC2) | HDAC9/HDAC6 in vitro selectivity (HDAC9) | IC50 (HDAC9) | selectivity toward HDAC6 compared to HDAC9 (in words) (HDAC9) | HDAC3/HDAC6 in vitro selectivity (HDAC3) | IC50 (HDAC3)
1 | O=C(NO)c1ccc(Cn2nnc3ccccc32)cc1 [C1, 4-((1H-benzo[d][1,2,3]triazol-1-yl)methyl)-N-hydroxybenzamide] | 66860 | 1070 nM | exceptionally high selectivity (Inhibitors with in vitro selectivity values for HDAC6 of at least 30,000 are considered to have exceptionally high selectivity toward HDAC6) | 7140 nM | 59773 | 956 nM | exceptionally high selectivity (Inhibitors with in vitro selectivity values for HDAC6 of at least 30,000 are considered to have exceptionally high selectivity toward HDAC6) | 19098 | 305 nM | 0.016 nM | 4884 | 78.1 nM | 67800 | 1080 nM | exceptionally high selectivity (Inhibitors with in vitro selectivity values for HDAC6 of at least 30,000 are considered to have exceptionally high selectivity toward HDAC6) | 10277 | 164 nM
2 | O=C(NO)c1ccc(Cn2nnc3cc(F)ccc32)cc1 [C3, 4-((5-fluoro-1H-benzo[d][1,2,3]triazol-1-yl)methyl)-N-hydroxybenzamide] | 81082 | 2130 nM | exceptionally high selectivity (Inhibitors with in vitro selectivity values for HDAC6 of at least 30,000 are considered to have exceptionally high selectivity toward HDAC6) | 1500 nM | 68665 | 1810 nM | exceptionally high selectivity (Inhibitors with in vitro selectivity values for HDAC6 of at least 30,000 are considered to have exceptionally high selectivity toward HDAC6) | 28870 | 759 nM | 0.0263 nM | 10108 | 266 nM | 62138 | 1630 nM | exceptionally high selectivity (Inhibitors with in vitro selectivity values for HDAC6 of at least 30,000 are considered to have exceptionally high selectivity toward HDAC6) | 19646 | 516 nM
3 | O=C(NO)c1ccc(Cn2nnc3cc(Cl)ccc32)cc1 [C4, 4-((5-chloro-1H-benzo[d][1,2,3]triazol-1-yl)methyl)-N-hydroxybenzamide] | 34808 | 1920 nM | exceptionally high selectivity (Inhibitors with in vitro selectivity values for HDAC6 of at least 30,000 are considered to have exceptionally high selectivity toward HDAC6) | 6040 nM | 26352 | 1460 nM |  | 11132 | 615 nM | 0.0552 nM | 2562 | 141 nM | 26037 | 1440 nM |  | 3920 | 216 nM

— US20150197497A1, “SELECTIVE INHIBITORS OF HISTONE DEACETYLASE ISOFORM 6 AND METHODS THEREOF” (DANA-FARBER CANCER INSTITUTE, INC., priority 2011, published 2015)
